Experimental data taken from US20160201067A1, “Composition for Enhancing Transgene Expression in Eukaryotic Cells and Method for Enhancing Production of a Target Protein Encoded by a Transgene” (SILEZIA GROUP PTE. LTD, priority 2013, published 2016).

What was measured:
[1] = system: mouse peritoneal macrophages transduced with Ad-GFP; assay: Enhancement of GFP expression in peritoneal macrophages transduced with Ad-GFP, PRR agonists (Example 4); type: cell-based; details: Ad-GFP 2 × 10^7 PFU/ml, 4 days
Protocol: Mouse peritoneal macrophages (BALB/c female mice, Stolbovaya breeding nursery) were washed with physiological saline solution, pelleted by centrifugation at 1200 rpm for 10 min, suspended in the complete cell culture medium (CCM, consisting of RPMI-1640 medium supplemented with 10% fetal calf serum, 2 mM L-glutamine, 50 μM of (3-mercaptoethanol, and 10 μg/ml of gentamycin) at a concentration of one million cells per 1 ml, and incubated over night in 90 mm Petri dishes at 37° C. and 5% CO2. On the next day, nonadherent cells were removed by washing with warm phosphate buffered saline (PBS, pH 7.4), and adherent cells were covered with Versene solution, kept at 4° C. for 60 min in a refrigerator, and then detached from the culture dish by washing with Versene solution using 5 ml pipette. […] Cell cultures were incubated for 4 days at 37° C. and 5% CO2.
Confocal microscopy images (FIG. 3A) show macrophages transduced with Ad-GFP and additionally activated by TLR4 agonist (10 μg/ml of APG, right image), as compared to control macrophages transduced with Ad-GFP without addition of APG (left image). […] The quantitative assay of GFP production was carried out using flow cytometry which determined both the absolute number of cells containing GFP and the GFP content in each cell by measuring fluorescence intensity of a single cell. The product of the number of fluorescent cells and the fluorescence intensity of each cell is proportional to the number of synthesized GFP molecules.
As is described earlier, peritoneal macrophages were transduced with Ad-GFP (2×10^7 PFU/ml) in the absence or presence of one of the above mentioned PRR agonists. Cell cultures were incubated at 37° C. and 5% CO2 for four days. After the end of incubation, cells were detached by washing with a cold Versene solution, and the percentage and absolute number of cells having green fluorescence and the intensity of cell fluorescence were determined using a FACSAria II flow cytometer. The absolute count of cells was normalized by calibration beads containing a known concentration of microspheres (CountBright Invitrogen), and discrimination between live and dead cells was carried out using a DNA-specific dye DAPI. Typical histograms of GFP fluorescence signal after the transduction of macrophages by Ad-GFP without additional activation of cells (FIG. 3D) or with additional activation of cells with CL097, the agonist of TLR7 and TLR8 (FIG. 3E), are shown.
The quantitative assessment of the enhancement of target GFP expression was performed by the formula:
K=MFI×N/MFIcontr×Ncontr, (1)
K is the enhancement (fold increase) of GFP expression;
MFI is the mean intensity of fluorescence of cells transduced with Ad-GFP with additional activation by an agonist;
MFIcontr is the mean intensity of fluorescence of cells transduced with Ad-GFP (control) without additional activation;
N is the number of fluorescent cells after the transduction with Ad-GFP with additional activation by an agonist; and
Ncontr is the number of fluorescent cells (control) after the transduction with Ad-GFP without additional activation.

[2] = system: mouse peritoneal macrophages; assay: Enhancement of transgenic SEAP expression in peritoneal macrophages (Example 6); details: TNF-α 10 ng/ml or APG 10 μg/ml vs Ad-SEAP alone
Protocol: A test liquid was clarified by centrifugation at 14,000 g for 2 min, warmed-up at 65° C. for 5 min to inhibit endogenous phosphatases, then 20 μl aliquots were transferred into each well of a 96-well plate to 130 μl of reaction buffer (0.5 M NaHCO3, 0.5 MM MgCl2, pH 9.8), and incubated at 37° C. for 10 min. Then 50 μl of 60 μM p-nitrophenyl phosphate in reaction buffer were added, and the optical density was measured at 405 nm at fixed intervals. The SEAP activity was expressed in mU/ml, considering 1 mU/ml corresponds to an increase in optical density of 0.04 U per 1 min.
Mouse peritoneal macrophages were obtained and incubated as described in the example 4. Cells were incubated in triplet culture wells with addition of Ad-GFP at 2×10^7 PFU per well in combination with TNF-α (10 ng/ml) or APG (Russian Patent no. 2195308, 10 μg/ml). In the negative control cultures, macrophages were transduced with Ad-SEAP (2×10^7 PFU) without any cell activating compound. After 4 days, the activity of SEAP was measured in the culture medium, as described in the example 2.

Compound: CC(C)Cn1cnc2c(N)nc3ccccc3c21 [Imiquimod, imiquimod]
- Fold increase in the expression of GFP, calculated according to the formula (1), Mean ([1]; agonist 10 μg/ml): 2.03

Compound: TNF-α
- Enhancement coefficient (SEAP expression in peritoneal macrophages) [2]: 1.8

Compound: ODN 1826
- Fold increase in the expression of GFP, calculated according to the formula (1), Mean ([1]; agonist 0.6 μg/ml): 1.43

Compound: lipoteichoic acid [LTA]
- Fold increase in the expression of GFP, calculated according to the formula (1), Mean ([1]; agonist 10 μg/ml): 2.10

Compound: Flagellin
- Fold increase in the expression of GFP, calculated according to the formula (1), Mean ([1]; agonist 1 μg/ml): 2.13

Compound: Lauroyl-g-D-Glu-D-mDAP and Lauroyl-g-D-Glu-L-mDAP [C12-iE-DAP]
- Fold increase in the expression of GFP, calculated according to the formula (1), Mean ([1]; agonist 20 μg/ml): 3.1

Compound: CCOCc1nc2c([nH]1)c(N)nc1ccccc12 [CL097]
- Fold increase in the expression of GFP, calculated according to the formula (1), Mean ([1]; agonist 2.5 μg/ml): 14.2
